In this data set the test system is Artemia. Briefly: Toxicity against brine shrimp. The data set is classed as organism-based. The note with it: in vivo.

We go through 1 molecule from ChEMBL document CHEMBL1158981, “An Unusual Sulfur-Containing Diketopiperazine from the Bermudian Sponge Tedania ignis” (J Nat Prod, 1991).

For `O=C1[C@@H]2CCCN2C(=O)[C@H]2CSCN12`, the Activity result was “Non-toxic”.
